{"source": "patent US20210369691A1", "about": "“METHODS AND COMPOSITIONS FOR IMPROVING BONE MARROW HEMATOPOIETIC FUNCTIONS” (Sun Yat-Sen University, priority 2018, published 2021)", "key": {"[1]": {"experiment": "Survival after repeated high-dose 5FU chemotherapy", "format": "in vivo, mice", "conditions": "5FU 150 mg/kg every 7 days, two times; ABC294640 10 mg/kg every other day; vs control group; FIG. 9", "procedure": "Preparation of SphK2 inhibitors was as described in Example 4. […] 8-week-old C57 mice purchased from Laboratory Animal Center, Sun Yat-sen University were selected and divided evenly into two groups. The mice were intraperitoneally injected with 5FU at a dose of 150 mg/kg, once every 7 days for two times in total. The inhibitor ABC294640 was injected starting from the day after 5FU injection, then injected once every other day, at a dose of 10 mg/kg, until the end of the experiment. Comparison of overall survival rates was performed using the Mantel_Cox log-rank test and differences were considered statistically significant when P<0.05."}, "hematopoietic stem cells [2]": {"tested_on": "hematopoietic stem cells", "experiment": "Hematopoietic stem cell number and cell cycle in uninjured mice after ABC294640 treatment", "format": "in vivo", "conditions": "vs solvent control", "source_text": "FIG. 27. illustrates the absolute number of HSPCs (LT-HSC, ST-HSC, MPP and CD150HSC) in the bone marrow (a) and cell cycle analysis of CD150 HSCs (b) in bone marrow from C57BL/6J mice after ABC294640 or solvent control treatment (n=5 mice). Data represent mean±s.d. Two-tailed Student's t-tests were used to assess statistical significance. *P<0.05, **P<0.01, ***P<0.001. To analyze whether Sphk2 inhibitor is effective in expanding hematopoietic stem cell number and enhance their function. Twenty 8-week-old C57 mice (purchased from Laboratory Animal Center, Sun Yat-sen University) were selected for the experiment. The mice were divided evenly into an inhibitor treatment group and a control group. The mice were injected intraperitoneally with ABC294640 (inhibitor treatment group) or solvent control (1:1 physiological saline: PEG400) solution (control group) every other day. 14 days after the first injection, bone marrow cells were harvested from both groups, and were analyzed for the number of hematopoietic stem cells, with methods and analysis as described in Example 1. To evaluate the hematopoietic function of the hematopoietic stem cells, 2×10^5 bone marrow cells from Sphk2 inhibitor or solvent control treated mice were transplanted into irradiated recipients (as described in Example 13). Peripheral blood was collected from the tail vein every 4 weeks after transplantation. The hematopoietic repopulation function was examined from donor-derived blood cells. The Sphk2 inhibitor was prepared as described in Example 4. Briefly, ABC294640 was purchased from Selleck and dissolved in dimethyl sulfoxide (DMSO), which was finally diluted with a mixture solution of polyethylene glycol 400 (PEG400) and physiological saline (1:1) to be administered at a dose of 10 mg/kg. T-test analysis was carried out using Graphpad6.0, and differences were considered statistically significant when *P<0.05, **P<0.01 and ***P<0.001."}, "hematopoietic stem cells [3]": {"tested_on": "hematopoietic stem cells", "experiment": "Hematopoietic repopulation by transplantation of bone marrow cells from inhibitor-treated mice", "format": "in vivo", "procedure": "To analyze whether Sphk2 deficient hematopoietic stem cells have increased hematopoietic function, 100 hematopoietic stem cells (Lin^−Sca-1^+c-Kit^+CD150^+CD48^−) from Sphk2 deficient mice or control donor mice were transplanted into irradiated wide-type recipients along with 2×10^5 CD45.1 bone marrow cells. Adult CD45.1 recipient mice were irradiated with an Orthovoltage X-ray source delivering approximately in two equal doses of 450 cGy at least 3 hours apart. Peripheral blood was collected from the tail vein every 4 weeks after the transplantation. Hematopoietic repopulation function was examined from donor-derived blood cells. To evaluate the hematopoietic function of the hematopoietic stem cells, 2×10^5 bone marrow cells from Sphk2 inhibitor or solvent control treated mice were transplanted into irradiated recipients (as described in Example 13). Peripheral blood was collected from the tail vein every 4 weeks after transplantation. The hematopoietic repopulation function was examined from donor-derived blood cells. The Sphk2 inhibitor was prepared as described in Example 4. Briefly, ABC294640 was purchased from Selleck and dissolved in dimethyl sulfoxide (DMSO), which was finally diluted with a mixture solution of polyethylene glycol 400 (PEG400) and physiological saline (1:1) to be administered at a dose of 10 mg/kg. […]"}, "[4]": {"experiment": "Survival after serial 5FU challenges every 7 days with ABC294640 every other day", "format": "in vivo, mice", "conditions": "vs control, FIG. 30", "procedure": "FIG. 30. illustrates the survival of C57BL/6J mice after serious 5FU treatment every 7 days and ABC294640 treatment every other day (n=10 mice group).\nRepopulation analyses was also performed to investigate whether ABC294640 treatment functionally promotes HSC regeneration after chemotherapeutic stress."}}}
{"smiles": "O=C(NCc1ccncc1)C12CC3CC(C1)CC(c1ccc(Cl)cc1)(C3)C2", "note": "[ABC294640, 3-(4-chloro-phenyl)-adamantane-1-carboxylic acid (pyridin-4-ylmethyl)-amide]", "values": [{"measurement": "survival period", "setting": "[1]", "result": "significantly (***P<0.001) prolonged"}, {"measurement": "increase of number of hematopoietic stem cells", "setting": "hematopoietic stem cells [2]; ABC294640 10 mg/kg i.p. every other day, 14 days after first injection, FIG. 14 panel b", "result": 1.7, "unit": "fold"}, {"measurement": "increase of CD150 HSCs (expanded HSC pool)", "setting": "hematopoietic stem cells [2]; FIG. 27", "result": 1.7, "unit": "fold"}, {"measurement": "increase of LT-HSCs (expanded HSC pool)", "setting": "hematopoietic stem cells [2]; FIG. 27", "result": 2.1, "unit": "fold"}, {"measurement": "quiescence of HSCs (cell cycle analysis of CD150 HSCs)", "setting": "hematopoietic stem cells [2]; FIG. 27", "result": "increased quiescence"}, {"measurement": "increase of hematopoietic reconstitution level", "setting": "hematopoietic stem cells [3]; 16 weeks after transplantation of 2x10^5 bone marrow cells from treated mice, FIG. 14 panel c", "result": 1.5, "unit": "fold"}, {"measurement": "generation of multi-hematopoietic lineages in recipients", "setting": "hematopoietic stem cells [3]; recipients of bone marrow cells from inhibitor-treated mice, FIG. 14 panel d", "result": "able to generate multi-hematopoietic lineages"}, {"measurement": "survival", "setting": "[4]", "result": "notably increased survival"}]}
